Source: US20230391824A1, “RATIONALE, DESIGN, SYNTHESIS AND VALIDATION OF A SMALL MOLECULE ANTICANCER AGENT” (priority 2021, published 2023)
Read-outs that look alike come from different tables or passages of the source.

Experiments:
LIN28B protein = molecular target: T1, LIN28B protein (Homo sapiens, UniProt Q6ZN17); test: Western blotting of Lin28B protein in cancer cell models; type: cell-based; conditions: YP-MEL, BT-37, NT-2 cells; at the tested dosages
T1 construct: in a panel of endogenously LIN28 expressing cancer cell models; endogenous in cells; host or cells: YP-MEL, BT-12, BT-37, NT-2 (NTERA)
T1 sequence (Q6ZN17 1-250): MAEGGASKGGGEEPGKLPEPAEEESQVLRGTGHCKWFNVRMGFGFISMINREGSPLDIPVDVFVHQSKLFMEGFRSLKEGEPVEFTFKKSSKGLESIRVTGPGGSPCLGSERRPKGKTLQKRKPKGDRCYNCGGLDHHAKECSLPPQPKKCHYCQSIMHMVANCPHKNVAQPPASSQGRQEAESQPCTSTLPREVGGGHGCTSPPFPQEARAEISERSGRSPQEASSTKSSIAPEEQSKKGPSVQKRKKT
Method: FIG. 5: Compound of formula (I) mixture, containing the two isomers (P1+P2) causes significant reduction in Lin28A protein from 5 μM onwards, in a panel of endogenously LIN28 expressing cancer cell models. […] LIN28A and LIN28B expression profile in pediatric CNS cancer cell lines, 96-hr post-treatment with Compound of formula (I). SDS-PAGE on 10% polyacrylamide gel of total cell lysates from untreated cells harvested at 80-90% confluency. Samples loaded with volumes for 20 μg protein. LIN28A and LIN28B proteins were detected using the anti-LIN28A antibody (#8706; Cell Signaling Technology) and anti-LIN28B antibody (#11965; Cell Signalling Technology) at 1:2000 dilutions. T47D: adult breast cancer (LIN28A expressing); YPMEL: malignant melanoma derived from Neurocutaneous Melanosis (NCM) (Lin28A and Lin28B expressing); BT-12: pediatric atypical-teratoid rhabdoid tumor (AT/RT). […]
The proteins were extracted from the same samples as the RNA using the RIPA lysis buffer. […] The proteins were detected using the anti-Lin28A antibody (#8706; Cell Signaling Technology), anti-Lin28B antibody (#11965, Cell Signaling Technology) the anti-beta-actin antibody at respectively 1:2000, 1:2000 and 1:5000 dilutions.

Solubility = type: physicochemical
Lin28A protein = molecular target: T2, Lin28A protein (Homo sapiens, UniProt Q9H9Z2); test: Western blotting of Lin28A protein in cancer cell models; type: cell-based
T2 construct: in a panel of endogenously LIN28 expressing cancer cell models; endogenous in cells; host or cells: T47D, YP-MEL, BT-12, BT-37, NT-2 (NTERA)
T2 sequence (Q9H9Z2 1-209): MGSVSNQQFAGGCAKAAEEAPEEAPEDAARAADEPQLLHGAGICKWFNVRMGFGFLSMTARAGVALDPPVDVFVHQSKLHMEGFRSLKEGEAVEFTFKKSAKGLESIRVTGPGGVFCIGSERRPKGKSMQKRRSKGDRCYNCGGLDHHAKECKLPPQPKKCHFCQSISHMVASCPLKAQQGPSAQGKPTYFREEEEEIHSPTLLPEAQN
Method: FIG. 5: Compound of formula (I) mixture, containing the two isomers (P1+P2) causes significant reduction in Lin28A protein from 5 μM onwards, in a panel of endogenously LIN28 expressing cancer cell models. […] LIN28A and LIN28B expression profile in pediatric CNS cancer cell lines, 96-hr post-treatment with Compound of formula (I). SDS-PAGE on 10% polyacrylamide gel of total cell lysates from untreated cells harvested at 80-90% confluency. Samples loaded with volumes for 20 μg protein. LIN28A and LIN28B proteins were detected using the anti-LIN28A antibody (#8706; Cell Signaling Technology) and anti-LIN28B antibody (#11965; Cell Signalling Technology) at 1:2000 dilutions. T47D: adult breast cancer (LIN28A expressing); YPMEL: malignant melanoma derived from Neurocutaneous Melanosis (NCM) (Lin28A and Lin28B expressing); BT-12: pediatric atypical-teratoid rhabdoid tumor (AT/RT).
FIG. 7A-C: To determine the differences in the biological activity of the two isomers (P1+P2) of Compound of formula (I), we tested the effects of purified and separated P1 and P2 isomers on the protein expression of Lin28A and Lin28B. (A) YP-MEL (NCM). (B) BT-37 (AT/RT). (C) NT-2 (NTERA) (Testicular cancer).
The proteins were extracted from the same samples as the RNA using the RIPA lysis buffer. The protein extracts (20 μg) were run on 10% SDS-PAGE and transferred on a nitrocellulose blotting membrane 0.22 μm (GE Healthcare) using the Trans-Blot® SD semi-dry transfer devise (Biorad). The proteins were detected using the anti-Lin28A antibody (#8706; Cell Signaling Technology), anti-Lin28B antibody (#11965, Cell Signaling Technology) the anti-beta-actin antibody at respectively 1:2000, 1:2000 and 1:5000 dilutions.

NT-2 testicular tumor = NT-2 testicular tumor xenograft in SCID mice; type: in vivo; conditions: male SCID mice; for growth of NT-2 tumors: every 2 days
Method: FIG. 14A-C: Male SCID NT-2 testicular tumor bearing mice treated with 4 mg/kg Compound of formula (I) (P1 version) via oral route of administration (P.O). […] Tumor areas were measured with a Vernier caliper (prior to each treatment cycle). Animals were euthanized when the control (0.1% DMSO:PBS) treated mice reached the defined endpoint of 225 mm^2. Data representative of at least 5 independent experiments. […] (B) is a graph depicting percentage change of tumour volume versus days after the first treatment. (C) is a graph depicting percentage survival versus days after the first treatment.
FIG. 15A-D: Male SCID NT-2 testicular tumor bearing mice treated with 4 mg/kg Compound of formula (I) (P1 version) via intraperitoneal route of administration (I.P). […] Tumor areas were measured with a Vernier caliper (prior to each treatment cycle). Animals were euthanized when the control (0.1% DMSO:PBS) treated mice reached the defined endpoint of 225 mm^2. Data representative of at least 5 independent experiments. […] (B) is a graph depicting percentage of tumour size versus days after the first treatment. (C) is a graph depicting percentage survival versus days after the first treatment. (D) is a photograph showing excised tumours.
FIG. 16A&B: Male SCID NT-2 testicular tumor bearing mice treated with 4 mg/kg Compound of formula (I) (P1 isomer) via intravenous route of administration (I.V). […] Tumor areas were measured with a Vernier caliper (prior to each treatment cycle). Animals were euthanized when the control (0.1% DMSO:PBS) treated mice reached the defined endpoint of 225 mm^2. Data representative of at least 5 independent experiments. (A) is a photograph showing excised tumours. (B) is graph depicting percentage of tumor size versus number of treatments.
All animal procedures were carried out in accordance with the guidelines of the Canadian Council on Animal Care and the NIH guidelines on the care and use of laboratory animals. All protocols were reviewed and approved by the Animal Care Committee of the University of Calgary (Protocol approval number: AC21-0147). Six- to eight-week-old female or male CB17 severe combined immunodeficiency (SCID) mice (Charles River Laboratories, Saint-Constant, QC, Canada) were subcutaneously injected in the right flank with 3×10^6 YP-MEL or NT-2 cells suspended in 0.1 mL sterile PBS. After tumor injection, animals with detectable tumor growth of at least 50 mm^2 were randomized into groups. The groups were treated with either 0.1% DMSO:PBS vehicle or 4 mg/kg of Compound of formula (I) dissolved in the vehicle, intraperitoneally (I.P), orally (P.O) or intravenously (I.V). Animals and respective cages were monitored for food and bedding supplies daily; doses were injected every 2 days and tumor areas were measured with a Vernier caliper (prior to each treatment cycle). When vehicle treated tumors reached the defined endpoint of 225 mm^2, every mouse in the group were euthanized. Tumors were excised and immediately imaged and processed for western blotting or fixed in paraformaldehyde for toxicology evaluation. (A)

Question: For CC[C@H](C)[C@H](NC(=O)[C@H](Cc1ncc[nH]1)NC(=O)c1cccc(C(N)=O)c1)C(=O)Nc1ccc(O)c(-c2nc3ccccc3s2)c1 [Compound P1], which Lin28B expression (LIN28B protein) is on record?
Answer: The Lin28B expression was “remained unaltered”.

Question: What about the solubility (Solubility; DMSO, organic solvent or mixture, read-out: solubility in DMSO) of the same molecule?
Answer: The solubility was 100 mg/mL.

Question: What about the solubility (Solubility; organic solvent or mixture, DMSO, freeze dried, RP-HPLC purified P1, read-out: solubility in DMSO) of the same molecule?
Answer: The solubility was 10 mM.

Question: What about the solubility (Solubility; water/PBS/culture medium, aqueous buffer, read-out: solubility in water/PBS/culture medium) of the same molecule?
Answer: Its solubility is 0.05 mM.

Question: What about the “selectivity relative to the crude mixture containing P1+P2” value (Lin28A protein; Lin28A inhibition, FIG. 7 versus FIG. 5) of the same molecule?
Answer: Its value is 5 times.

Question: What about the “concentration from which Lin28A is selectively inhibited” value (Lin28A protein; YP-MEL, BT-37, NT-2 cells) of the same molecule?
Answer: Its value is ≥ 1 µM.

Question: And the “treated animals that survived tumor-free for 120 days” value (NT-2 testicular tumor; 4 mg/kg I.P)?
Answer: The value was “at least 50%”.

Question: What about the “growth of NT-2 tumors” value (NT-2 testicular tumor; 4 mg/kg I.P) of the same molecule?
Answer: Its value is “significantly reduced the growth”.

Question: And the “growth of NT-2 tumors” value (NT-2 testicular tumor; 4 mg/kg I.V)?
Answer: Its value is “significantly reduced the growth”.

Question: And the tumor shrinkage (NT-2 testicular tumor; 4 mg/kg I.V, with only 4 doses)?
Answer: Its tumor shrinkage is “in some cases showed complete shrinkage”.

Question: And the “growth of NT-2 tumors” value (NT-2 testicular tumor; 4 mg/kg P.O)?
Answer: The value was “significantly reduced the growth”.
